Data taken from patent US20150005242A1, “AROMATIC-CATIONIC PEPTIDES AND USES OF SAME” (Institut de Recherches Cliniques de Montreal, priority 2010, published 2015).

Key:
cytochrome c (cyt c) = cytochrome c (cyt c) (Homo sapiens, UniProt P99999); assay: kinetics of cyt c reduction monitored by absorbance spectroscopy (A550); format: biochemical; details: for cyt c reduction by peptide alone: peptide alone at 100 μM, no reducing agent
Description: FIG. 1 is a chart showing that the peptide D-Arg-Dmt-Lys-Phe-NH2 increases the rate of cytochrome c (cyt c) reduction. Reduced cyt c was measured by absorbance at 550 nm. […] The peptide alone at 100 μM had no effect.
We hypothesize that the distribution of aromatic cationic peptides among the protein complexes in the IMM allows it to serve as additional relay stations to facilitate ET. In support of this hypothesis, we have used the kinetics of cyt c reduction (monitored by absorbance spectroscopy) as a simple model system to determine if the peptide D-Arg-2′6′-Dmt-Lys-Phe-NH2 can facilitate ET.

[1] = system: renal ischemia-reperfusion (IR) injury; assay: restoration of mitochondrial respiration and ATP synthesis following renal ischemia-reperfusion (IR) injury; format: in vivo; details: rats, 2.0 mg/kg sc 30 min before ischemia and at reperfusion; for state 3 respiration (oxygen consumption) in isolated renal mitochondria: 45 min bilateral renal artery occlusion, 20 min reperfusion, p<0.01; for ATP content (ATP synthesis) in rat kidney: 45 min ischemia, 1 h after IR injury, P<0.05
Description: FIG. 2 is a chart showing treatment with D-Arg-Dmt-Lys-Phe-NH2 increased state 3 respiration in isolated renal mitochondria after 20 min IR injury (p<0.01).
FIG. 3 is a chart showing that treatment with D-Arg-Dmt-Lys-Phe-NH2 increased ATP content in rat kidney at 1 h after IR injury (P<0.05).
Preliminary studies further support our hypothesis that D-Arg-2′6′-Dmt-Lys-Phe-NH2 can facilitate ET and improve ATP synthesis in vivo. We have examined the effect of this peptide on restoration of mitochondrial respiration and ATP synthesis following ischemia-reperfusion (IR) injury in rats. Rats were subjected to bilateral occlusion of renal artery for 45 min followed by 20 min or 1 h reperfusion. Rats received saline or peptide (2.0 mg/kg sc) 30 min before ischemia and again at the time of reperfusion (n=4-5 in each group).

mitochondrial ROS = mitochondrial ROS and mitochondrial function in cellular and animal studies; format: cell-based
Description: These examples identify “druggable” chemical compounds that can reduce mitochondrial oxidative stress and protect mitochondrial function. As mitochondria are the major source of intracellular reactive oxygen species (ROS), the antioxidant must be delivered to mitochondria in order limit oxidative damage to mitochondrial DNA, proteins of the electron transport chain (ETC), and the mitochondrial lipid membranes. We discovered a family of synthetic aromatic-cationic tetrapeptides that selectively target and concentrate in the inner mitochondrial membrane (IMM). Some of these peptides contain redox-active amino acids that can undergo one-electron oxidation and behave as mitochondria-targeted antioxidants. […] Although radical scavenging is the most commonly used approach to reduce oxidative stress, there are other potential mechanisms that can be used, including facilitation of electron transfer to reduce electron leak and improved mitochondrial reduction potential.

[2] = neutralization of reactive species and inhibition of lipid peroxidation; format: biochemical
[3] = system: animal models of ischemia-reperfusion injury, neurodegenerative diseases, and metabolic syndrome; assay: animal models of ischemia-reperfusion injury, neurodegenerative diseases, and metabolic syndrome; format: in vivo
[4] = listed as D-Arg-2′6′-Dmt-Lys-Phe-NH2, 2 mg/kg

Chain of cytochrome c (cyt c) (P99999 whole entry, species assumed): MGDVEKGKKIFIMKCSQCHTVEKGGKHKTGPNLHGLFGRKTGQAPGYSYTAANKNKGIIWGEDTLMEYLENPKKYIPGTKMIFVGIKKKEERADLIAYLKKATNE

Substance	rate of NAC-induced cyt c reduction (cytochrome c (cyt c); 40 μM NAC as reducing agent, absorbance at 550 nm)	cyt c reduction by peptide alone (cytochrome c (cyt c))	cyt c reduction by peptide alone (cytochrome c (cyt c); listed as D-Arg-2′6′-Dmt-Lys-Phe-NH2)	state 3 respiration (oxygen consumption) in isolated renal mitochondria ([1]; 2 mg/kg)	state 3 respiration (oxygen consumption) in isolated renal mitochondria [1, 4]	ATP content (ATP synthesis) in rat kidney ([1]; 2 mg/kg)	ATP content (ATP synthesis) in rat kidney [1, 4]	mitochondrial ROS (mitochondrial ROS; cellular and animal studies)	mitochondrial function (mitochondrial ROS; cellular and animal studies)	protection against mitochondrial oxidative stress (mitochondrial ROS; compared with mitochondrial catalase overexpression)	lipid peroxidation [2]	neutralization of H2O2 [2]	neutralization of hydroxyl radical [2]	neutralization of peroxynitrite [2]	efficacy in animal models [3]	oral bioavailability
D-Arg-2′6′-Dmt-Lys-Phe-NH2 [D-Arg-Dmt-Lys-Phe-NH2]	dose-dependently increased	had no effect	did not reduce cyt c	increased	improved	increased	improved									
D-Arg-2′6′-Dmt-Tyr-Lys-Phe-NH2								reduces	protect	comparable to that observed with mitochondrial catalase overexpression	inhibit	can neutralize	can neutralize	can neutralize	remarkable efficacy	limited by degradation in intestinal fluids
